Source: paper PMC3824214, “A Novel Factor Xa-Inhibiting Peptide from Centipedes Venom” (International Journal of Peptide Research and Therapeutics, 2013)
“And” between values parts separate entries of the source, which are not always exact repeats. Equal entries are not always repeated. Where two headings read alike, the source gives them in different places. Marks after values point to notes of the source that are not given here.

Assays:
[1] = tested on: normal citrated PPP (platelet poor plasma); assay: in vitro PT clotting assay; type: biochemical, ICR mice; details: sample diluted in PBS pH 8.34, mouse PPP, 3 min at 37 °C, triplicates, mean ± SE
Description: (§1) Blood was drawn by Eyeball from ICR mice. The blood was separately centrifuged at 2,500×g for 10 min to obtain platelet poor plasma (PPP). For the in vitro aPTT assay, normal citrated PPP (50 μl) was incubated with sample solution (8, 6, 4, 2, 1 mg/ml, previously diluted in PBS, pH 8.34, 50 μl) and 100 μl aPTT reagent for 3 min at 37 °C. Clotting time was immediately recorded after the addition of 100 μl of 20 mM CaCl2. For the in vitro PT assay, normal citrated PPP (25 μl) was incubated with sample solution (8, 6, 4, 2, 1 mg/ml, previously diluted in PBS, pH 8.34, 25 μl) for 3 min at 37 °C. Clotting time was immediately recorded after the addition of 50 μl of PT reagent (Majdoub et al. [2009]). All coagulation assays were performed in triplicates. Heparin was used as a positive control, and PBS (pH 8.34) as model control. For ex vivo coagulation assays, samples were dissolved in saline and were intravenously injected (10 or 20 mg/kg) in ICR mice (6 animals/group). Five and 24 h after drug administration, blood was collected (drawn by eyeball), immediately centrifuged (3,000 rpm, 15 min), and the plasma was used to measure the aPTT and PT as previously described (Batista et al. [2010]).

[2] = tested on: normal citrated PPP (platelet poor plasma); type: biochemical, ICR mice; details: for APTT: sample diluted in PBS pH 8.34, mouse PPP, 3 min at 37 °C, triplicates, mean ± SE
Description: as §1

whole blood clotting = assay: Whole blood clotting time in vivo, capillary glass tube method; parameters: species or system mice; details: for CT (clotting time): six per group, mean ± SE, saline 273.2 s; for Effect on whole blood clotting time: TNGYT 10 and 20 mg/kg, heparin 20 mg/kg, versus control group, P < 0.01
Description: Whole blood clotting time (CT) in mice was measured by capillary glass tube method (Li et al. [2004]). Mice (18–22 g body weight) were divided into four groups (both sexes, six per group). Two groups were received intravenous injection of 20 and 10 mg/kg body weight of the purified peptide for four consecutive days. Other groups were received normal saline and 20 mg/kg body weight of heparin (the positive control), respectively. Fifteen minutes after the last administration (positive control after 2 h), blood samples were collected through the retro-orbital plexus with a glass capillary and kept on a slide to allow for clotting. Stirring the blood with a dry needle every 30 s until needle wire can provoke a fibrous protein, when is defined as clotting time.

bleeding time = assay: Bleeding time in vivo, tail cut; parameters: species or system ICR mice; details: for BT (bleeding time): 6 animals/group, mean ± SE, saline 315.2 s
Description: The mice (both sexes, 18–22 g) were randomly divided into four groups. The samples were intravenously injected (10 or 20 mg/kg) in ICR mice (6 animals/group) once a day in four consecutive days. Fifteen minutes after the last administration (positive control after 2 h), the mice tail was marked with a tag in the distance of 3 mm to after peak, then cut in the mark. Then the tip of the tail was immersed in saline at 37 °C. Record the time from cutting the tip of the tail to stopping bleeding, the interval was called bleeding time (Kogushi et al. [2011]). Heparin was used as positive control, and 0.9 % saline as model control.

[3] = tested on: plasma of treated mice (PT); assay: ex vivo PT assay; type: in vivo, ICR mice; details: for PT: ex vivo, ICR mice, 6 animals/group, mean ± SE
Description: as §1

[4] = tested on: plasma of treated mice (aPTT); assay: ex vivo aPTT assay; type: in vivo, ICR mice; details: for APTT: ex vivo, ICR mice, 6 animals/group, mean ± SE
Description: as §1

human FXa = target: T1, human FXa (Homo sapiens, UniProt P00742); assay: FXa inhibition assay, chromogenic substrate S-2222; type: biochemical
T1 construct: Purified human FXa; purchased HYPHEN BioMed (Neuvile sur Oise, France)
T1 sequence (P00742 235-488 limits assumed): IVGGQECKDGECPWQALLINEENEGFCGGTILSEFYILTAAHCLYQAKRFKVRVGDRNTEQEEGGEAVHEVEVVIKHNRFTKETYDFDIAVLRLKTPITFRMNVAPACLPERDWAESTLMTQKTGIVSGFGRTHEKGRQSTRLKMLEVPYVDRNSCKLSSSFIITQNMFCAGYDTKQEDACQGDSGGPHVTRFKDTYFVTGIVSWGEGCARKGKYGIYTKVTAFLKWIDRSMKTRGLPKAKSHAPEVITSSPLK
T1 sequence (P00742 41-179 partner limits assumed): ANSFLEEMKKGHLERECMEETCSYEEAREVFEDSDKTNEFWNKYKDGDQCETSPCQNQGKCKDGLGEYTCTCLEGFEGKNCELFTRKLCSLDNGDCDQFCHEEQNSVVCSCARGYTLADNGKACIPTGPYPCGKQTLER
Source text: Sephadex G-50 was obtained from Pharmacia (Uppsala, Sweden). Purified human FXa and chromogenic substrate of FXa (S2222) were purchased from HYPHEN BioMed (Neuvile sur Oise, France). Mice of both sexes were from Qinglongshan animal center (Nanjing, Jiangsu Province, China). All the animal protocols were approved by the Animal Care and Use Committee at China Pharmaceutical University. All other chemicals and reagents were at analytical grade.
Chromogenic substrate method was used to measure the FXa-inhibiting activity. Inhibition was determined by FXa residual activity on the chromogenic substrate BIOPHEN CS-11 (S-2222) (22), which liberates the chromophoric group pNA (p-nitroaniline) (van Wijk and Smit [1984]). Different concentrations of the peptide (5–60 mg/ml) were incubated with FXa for 30 min at 37 °C in PBS (pH 8.34). The reaction was initiated by adding the substrate into the peptide solution (Ibrahima et al. [2001]). The absorbance at 405 nm was recorded every 0.5 min in 5 min. In A–t curve, the curve slope was considered as reaction rate (v).
Inhibition rate(%)=V0- Vi/V0×100%, V0 is the rate of PBS (pH 8.34, model control), and Vi is the rate of peptide.

[5] = from S. subspinipes mutilans; ref Kong et al. [2013]; cited from earlier work
Source text: The centipede contains many bioactive components, including 5-hydroxytryptamine, histamine, lipids, polysaccharides, and various enzymes (e.g. proteinases and esterases) (Knysak et al. [1998]; Gomes et al. [1983]). They have been widely used as traditional folk medicine to treat thrombotic diseases in China (Pemberton [1999]) for several hundred years. […] Wu et al. ([2009]) found centipede acidic protein (CAP) signif ...

Thr-Asn-Gly-Tyr-Thr (TNGYT)
PT ([1]; 1 mg/ml): 14.7 ± 0.6 s | PT ([1]; 2 mg/ml): 15.3 ± 1.5 s | PT ([1]; 4 mg/ml): 17.7 ± 0.6 s | PT ([1]; 8 mg/ml, 0.9 % saline control 12.7 s): 23.3 s and 23.3 ± 1.5 s | Biological activity, natural vs synthesized peptide (aPTT and PT assays) ([2]; aPTT and PT assays, data in Table 1 of Supplementary Data): the same biological activity | Potency relative to heparin, fold lower ([2]; in vitro assay, lower than heparin): at least 8 -folded | APTT ([2]; in vitro, 1 mg/ml): 36.7 ± 1.5 s | APTT ([2]; in vitro, 2 mg/ml): 44.0 ± 2.0 s | APTT ([2]; in vitro, 4 mg/ml): 44.0 ± 1.0 s | APTT ([2]; in vitro, 8 mg/ml, 0.9 % saline control 33.3 s): 57 s and 57.0 ± 2.0 s | Action on aPTT and PT relative to heparin ([2]; in vitro, aPTT and PT, versus heparin (1 mg/ml)): lower than the positive control heparin | CT (clotting time) (whole blood clotting; 10 mg/kg i.v., four consecutive days, 15 min after last administration, mice): 389.0 ± 35.74 s | CT (clotting time) (whole blood clotting; 20 mg/kg i.v., four consecutive days, 15 min after last administration, mice): 463.0 ± 48.8 s | Effect on whole blood clotting time (whole blood clotting): significantly prolong whole blood clotting time | Effect in prolonging the clotting time compared to heparin (whole blood clotting; same dose of 20 mg/kg, i.v., mice): about 50% | BT (bleeding time) (bleeding time; 10 mg/kg i.v. once a day, four consecutive days, 15 min after last administration): 447.5 ± 78.1 s | BT (bleeding time) (bleeding time; 20 mg/kg i.v. once a day, four consecutive days, 15 min after last administration): 549.7 ± 60.9 s | Effect on bleeding time (bleeding time; 10 and 20 mg/kg, versus model control, P < 0.01): significantly prolong the bleeding time | Risk of bleeding relative to heparin (bleeding time; equal dose 20 mg/kg, inferred from bleeding time): lower than that of heparin | Alteration of PT ex vivo ([3]; 10 or 20 mg/kg i.v., mice): no significant alterations were observed in the PT | PT ([3]; 5 h after 10 mg/kg i.v., saline 15.7 s): 16.7 ± 0.6 s | PT ([3]; 24 h after 10 mg/kg i.v., saline 17.7 s): 18.7 ± 1.5 s | PT ([3]; 24 h after 20 mg/kg i.v., saline 17.7 s): 18.3 ± 0.6 s | Alteration of aPTT ex vivo ([4]; 10 or 20 mg/kg i.v., 5 and 24 h, mice): increases in the aPTT were observed | APTT ([4]; 5 h after 10 mg/kg i.v., saline 49.0 s): 59.0 ± 2.0 s | APTT ([4]; 5 h after 20 mg/kg i.v., saline 49.0 s): 65.7 ± 3.1 s | APTT ([4]; 24 h after 10 mg/kg i.v., saline 47.0 s): 49.3 ± 1.5 s | APTT ([4]; 24 h after 20 mg/kg i.v., saline 47.0 s): 51.3 ± 2.3 s | Inhibition of FXa activity (human FXa; 60 mg/ml, 30 min at 37 °C, PBS pH 8.34, substrate S-2222, absorbance 405 nm): 59.75% | Inhibition rate of FXa relative to other protein/peptide FXa inhibitors (human FXa; versus Ac-AP-12, Amblyomin-X, Nymphal FXa inhibitor, AduNAP4): lower than FXa inhibitors mentioned above

Ser-Gln-Leu (SQL) [anti-thrombotic peptide isolated from S. subspinipes mutilans]
Anti-thrombotic activity [5]: anti-thrombotic

Heparin [reference compound]
PT ([1]; 1 mg/ml): >60.0** s | APTT ([2]; in vitro, 1 mg/ml): >60.0** s | Effect on whole blood clotting time (whole blood clotting): significantly prolong whole blood clotting time | CT (clotting time) (whole blood clotting; positive control 20 mg/kg, 2 h after administration, mice): 718.8 ± 60.15 s | BT (bleeding time) (bleeding time; positive control 20 mg/kg, 2 h after last administration): 804.3 ± 87.7 s
